According to the NIST ThermoML archive (doi:10.1016/j.jct.2008.09.002):
Numbers after ± are expanded uncertainties.

Key:
[1] = xn = mol fraction of the nth substance listed; settings: 101.3 kPa, Liquid, Vibrating tube method
[2] = molar heat capacity at constant pressure; xn = mol fraction of the nth substance listed; settings: 101.3 kPa, Liquid, Small sample (50 mg) DSC
[3] = excess molar enthalpy (molar enthalpy of mixing); xn = mol fraction of the nth substance listed; settings: 303.15 K, 101.3 kPa, Liquid, Calvet calorimetry

CCCCCCn1cc[n+](C)c1.F[B-](F)(F)F [1-hexyl-3-methylimidazolium tetrafluoroborate] + C[N+](=O)[O-]
Settings	mass density, [1] [kg/m3]	molar heat capacity at constant pressure, [2] [J/K/mol]
293.15 K, x1 = 0.098	1148.7 ± 0.7	136.3 ± 2.1
293.15 K, x1 = 0.1933	1150.7 ± 0.8	166.4 ± 2.6
293.15 K, x1 = 0.3062	1151.2 ± 0.8	202.6 ± 3.1
293.15 K, x1 = 0.3988	1151.1 ± 0.9	232.4 ± 3.6
293.15 K, x1 = 0.4936	1150.9 ± 0.9	262.8 ± 4.1
293.15 K, x1 = 0.5941	1150.5 ± 1	295.4 ± 4.6
293.15 K, x1 = 0.5973	1150.5 ± 1	–
293.15 K, x1 = 0.6839	1150.1 ± 1	–
293.15 K, x1 = 0.6917	1150 ± 1	326.6 ± 5.1
293.15 K, x1 = 0.7702	1149.8 ± 1	351.4 ± 5.4
293.15 K, x1 = 0.7767	1149.7 ± 1	–
293.15 K, x1 = 0.786	1149.6 ± 1	–
293.15 K, x1 = 0.8514	1149.3 ± 1.1	–
293.15 K, x1 = 0.8665	1149.2 ± 1.1	382.6 ± 5.9
293.15 K, x1 = 0.8727	1149.2 ± 1.1	–
298.15 K, x1 = 0.098	1143.2 ± 0.7	136.7 ± 2.1
298.15 K, x1 = 0.1933	1145.8 ± 0.8	167 ± 2.6
298.15 K, x1 = 0.3062	1146.7 ± 0.8	203.5 ± 3.2
298.15 K, x1 = 0.3988	1146.9 ± 0.9	233.4 ± 3.6
298.15 K, x1 = 0.4936	1146.8 ± 0.9	264 ± 4.1
298.15 K, x1 = 0.5941	1146.6 ± 0.9	296.8 ± 4.6
298.15 K, x1 = 0.5973	1146.6 ± 0.9	–
298.15 K, x1 = 0.6839	1146.4 ± 1	–
298.15 K, x1 = 0.6917	1146.2 ± 1	328.3 ± 5.1
298.15 K, x1 = 0.7702	1146.1 ± 1	353.4 ± 5.5
298.15 K, x1 = 0.7767	1146 ± 1	–
298.15 K, x1 = 0.786	1146 ± 1	–
298.15 K, x1 = 0.8514	1145.8 ± 1.1	–
298.15 K, x1 = 0.8665	1145.7 ± 1.1	384.8 ± 6
298.15 K, x1 = 0.8727	1145.7 ± 1.1	–
303.15 K, x1 = 0.098	1137.7 ± 0.7	137.2 ± 2.1
303.15 K, x1 = 0.1933	1140.9 ± 0.8	167.7 ± 2.6
303.15 K, x1 = 0.3062	1142.3 ± 0.8	204.4 ± 3.2
303.15 K, x1 = 0.3988	1142.7 ± 0.8	234.5 ± 3.6
303.15 K, x1 = 0.4936	1142.8 ± 0.9	265.4 ± 4.1
303.15 K, x1 = 0.5941	1142.8 ± 0.9	298.3 ± 4.6
303.15 K, x1 = 0.5973	1142.8 ± 0.9	–
303.15 K, x1 = 0.6839	1142.6 ± 1	–
303.15 K, x1 = 0.6917	1142.5 ± 1	330 ± 5.1
303.15 K, x1 = 0.7702	1142.5 ± 1	355.4 ± 5.5
303.15 K, x1 = 0.7767	1142.4 ± 1	–
303.15 K, x1 = 0.786	1142.4 ± 1	–
303.15 K, x1 = 0.8514	1142.3 ± 1.1	–
303.15 K, x1 = 0.8665	1142.1 ± 1.1	387 ± 6
303.15 K, x1 = 0.8727	1142.2 ± 1.1	–
308.15 K, x1 = 0.098	1132.1 ± 0.7	137.7 ± 2.1
308.15 K, x1 = 0.1933	1136 ± 0.7	168.4 ± 2.6
308.15 K, x1 = 0.3062	1137.8 ± 0.8	205.3 ± 3.2
308.15 K, x1 = 0.3988	1138.5 ± 0.8	235.6 ± 3.7
308.15 K, x1 = 0.4936	1138.8 ± 0.9	266.7 ± 4.1
308.15 K, x1 = 0.5941	1138.9 ± 0.9	299.8 ± 4.6
308.15 K, x1 = 0.5973	1138.9 ± 0.9	–
308.15 K, x1 = 0.6839	1138.9 ± 1	–
308.15 K, x1 = 0.6917	1138.8 ± 1	331.7 ± 5.1
308.15 K, x1 = 0.7702	1138.9 ± 1	357.3 ± 5.5
308.15 K, x1 = 0.7767	1138.8 ± 1	–
308.15 K, x1 = 0.786	1138.8 ± 1	–
308.15 K, x1 = 0.8514	1138.7 ± 1.1	–
308.15 K, x1 = 0.8665	1138.6 ± 1.1	389.1 ± 6
308.15 K, x1 = 0.8727	1138.6 ± 1.1	–
313.15 K, x1 = 0.098	1126.6 ± 0.7	138.3 ± 2.1
313.15 K, x1 = 0.1933	1131.1 ± 0.7	169.2 ± 2.6
313.15 K, x1 = 0.3062	1133.4 ± 0.8	206.3 ± 3.2
313.15 K, x1 = 0.3988	1134.3 ± 0.8	236.9 ± 3.7
313.15 K, x1 = 0.4936	1134.8 ± 0.9	268.2 ± 4.2
313.15 K, x1 = 0.5941	1135.1 ± 0.9	301.3 ± 4.7
313.15 K, x1 = 0.5973	1135.1 ± 0.9	–
313.15 K, x1 = 0.6839	1135.2 ± 1	–
313.15 K, x1 = 0.6917	1135.1 ± 1	333.4 ± 5.2
313.15 K, x1 = 0.7702	1135.3 ± 1	359.2 ± 5.6
313.15 K, x1 = 0.7767	1135.2 ± 1	–
313.15 K, x1 = 0.786	1135.2 ± 1	–
313.15 K, x1 = 0.8514	1135.2 ± 1	–
313.15 K, x1 = 0.8665	1135.1 ± 1.1	391.3 ± 6.1
313.15 K, x1 = 0.8727	1135.1 ± 1.1	–
318.15 K, x1 = 0.098	1121 ± 0.7	138.8 ± 2.2
318.15 K, x1 = 0.1933	1126.2 ± 0.7	169.9 ± 2.6
318.15 K, x1 = 0.3062	1129 ± 0.8	207.3 ± 3.2
318.15 K, x1 = 0.3988	1130.2 ± 0.8	238.1 ± 3.7
318.15 K, x1 = 0.4936	1130.9 ± 0.9	269.6 ± 4.2
318.15 K, x1 = 0.5941	1131.3 ± 0.9	302.8 ± 4.7
318.15 K, x1 = 0.5973	1131.3 ± 0.9	–
318.15 K, x1 = 0.6839	1131.5 ± 1	–
318.15 K, x1 = 0.6917	1131.4 ± 1	335 ± 5.2
318.15 K, x1 = 0.7702	1131.6 ± 1	361.1 ± 5.6
318.15 K, x1 = 0.7767	1131.6 ± 1	–
318.15 K, x1 = 0.786	1131.6 ± 1	–
318.15 K, x1 = 0.8514	1131.7 ± 1	–
318.15 K, x1 = 0.8665	1131.6 ± 1	393.4 ± 6.1
318.15 K, x1 = 0.8727	1131.6 ± 1.1	–

[3]
Settings	excess molar enthalpy [kcal/mol]
x1 = 0.1	-0.0174 ± 0.00143
x1 = 0.2074	-0.0296 ± 0.00239
x1 = 0.3028	-0.0349 ± 0.00287
x1 = 0.4096	-0.0382 ± 0.00311
x1 = 0.5095	-0.038 ± 0.00311
x1 = 0.6072	-0.0342 ± 0.00287
x1 = 0.7148	-0.027 ± 0.00215
x1 = 0.7891	-0.0225 ± 0.00191
x1 = 0.8821	-0.012 ± 0.000956
